The record followed here is patent US9345245B2, “Synthetic compounds for vegetative ABA responses” (THE REGENTS OF THE UNIVERSITY OF CALIFORNIA, priority 2012, dated 2016).

One data set has as its system PYR/PYL receptors. The data set can be described thus: Receptor-mediated PP2C inhibition assay, all ABA receptors tested. The format is biochemical, Arabidopsis. The following applies: 10 μM; in the presence of all ABA receptors tested. On the procedure:
HAB1 and PYL proteins were expressed and purified as described previously (Park S Y, et al. (2009) Abscisic Acid Inhibits Type 2C Protein Phosphatases via the PYR/PYL Family of START Proteins. Science 324(5930):1068-1071), with minor modifications. To obtain GST-HAB1, -ABI1 and -ABI2 fusion proteins, the HAB1 cDNA was cloned into pGex-2T whereas ABI1 and ABI2 cDNAs were cloned into the vector pGex-4T-1. Expression was conducted in BL21[DE3]pLysS host cells. Transformed cells were pre-cultured overnight, transferred to LB medium and cultured at 30° C. to culture A600 of 0.5. The culture was then cooled on ice and MnCl2 added to 4 mM and IPTG added to 0.3 mM. After 16 hours incubation at 15° C., cells were harvested and recombinant proteins were purified on glutathione agarose as described previously (Park S Y, et al. (2009). To obtain 6×His-PYL receptor fusion proteins, receptor cDNAs for all 13 ABA receptors were cloned into the vector pET28 and expressed and purified as described previously (Mosquna A, et al. (2011) Potent and selective activation of abscisic acid receptors in vivo by mutational stabilization of their agonist-bound conformation. PNAS 108(51):20838-20843); this yielded soluble and functional protein (assessed using receptor-mediated PP2C inhibition assays) for all receptors except PYL7, PYL11 and PYL12. […]

For data set [1], the system named is CYP707A ABA-hydroxylating enzymes. The data set can be described thus: Growth and germination in CYP707A overexpressing and cyp707a double mutant plants. The format is in vivo, Arabidopsis. The following applies: 40 μM. An excerpt: FIG. 12. LC66C6 sensitivity is not influenced by the CYP707A ABA-hydroxylating enzymes.
The test system of a further data set is Arabidopsis seeds. The experiment in a line: Arabidopsis seed germination inhibition. The format is in vivo. The following applies: pyr1/pyl1/pyl2/pyl4 quadruple mutant; 5 μM. How it is done: FIG. 5. Novel ABA agonists inhibit germination of Arabidopsis seeds more strongly than pyrabactin. (A) and (B) Comparison of seed germination inhibition by ABA agonists. (C) and (D) the effects of ABA and LC66C6 (also called quinabactin) on Arabidopsis ABA signaling- and biosynthesis-deficient mutants on germination (C) and seedling establishment (D). Seeds were sown on ½×MS agar plate containing chemicals, and were stored at 4° C. for 4 days, then transferred at 22±2° C. Photographs (A and C) and germination (B) or green cotyledon (D) scores were assessed after a 4-day incubation under continuous illumination. […] For Arabidopsis germination and hypocotyl growth inhibition analysis, seeds after-ripened about 4 weeks were surface-sterilized with a solution containing 5% NaClO and 0.05% Tween-20 for 10 minutes, and rinsed with water four times. Sterilized seeds were suspended with 0.1% agar and sowed on the 0.8% solidified agar medium containing ½ Murashige and Skoog (MS) salts (Sigma-Aldrich) in the presence of chemicals and were stored at 4° C. for 4 days, then transferred at 22° C. under the dark or light. Germination was determined after a 4-day incubation, whereas hypocotyl growth was photographed after 6-day incubation.

The next data set has as its system ABA-responsive genes. The experiment in a line: Quantitative RT-PCR of ABA-responsive genes in Arabidopsis. The format is in vivo. How it is done:
FIG. 9. LC66C6 induces numerous ABA-responsive genes. […] Ten-day old seedlings were treated with carrier solvent (DMSO) or either 25 μM ABA, pyrabactin or LC66C6 for 8 hours. Total RNA was then prepared labeled and hybridized to ATH1 microarrays. Data plotted are log 2 transformed average expression values for ˜13K probes that were detectable across all experiments. Data shown are averages determined from triplicate biological replicates. (C) and (D) show the expression of a reporter gene in different plant tissues after treatment with vehicle (DMSO), pyrabactin, LC66C6, or (+)-ABA.
Total RNA was isolated using Plant RNA purification reagent (Invitrogen, USA) according to the manufacturer's instructions. cDNA was synthesized from 1 μg of total RNA using the QantiTec reverse transcription kit (Qiagen, USA). Real-time PCR using Maxima® SYBR Green/Fluorescein qPCR Master Mix (Fermentas) was performed with the iQ5 real-time PCR detection system (Bio-Rad, Hercules, Calif.). The relative amounts of target mRNAs were determined using the relative standard curve method and were normalized by relative amount of internal control mRNA. Biological triplicate experiments were performed.

The next data set deals with Chlamydomonas. The experiment in a line: Colony growth of Chlamydomonas with and without salinity and osmotic stress. The format is in vivo. The following applies: with and without salinity and osmotic stress. On the procedure: FIG. 17. The effect of ABA and its agonists in Physcomitrella patens and Chlamydomonas. Protonemal growth images (A) and quantitative analysis (B) of the effects of ABA and agonists on Phsycomitrella patens. Protonema were grown on 200 μM of specific test chemical for 10 days. […] Pyrabactin bleached protonema. (C) The expression of ABA-responsive genes of Physcomitrella patens. Protonema were treated with 200 μM chemical solutions for 3 h. (D) Colony growth of Chlamydomonas on the chemical with salinity stress and osmotic stress. There was no effect of ABA and LC66C6 on the Chlamydomonas growth with and without stresses.

Take `CC1=CC(=O)CC(C)(C)C1(O)/C=C/C(C)=C\C(=O)O` (single isomer, unassigned; (+)) [(+)-ABA, Abscisic acid]: in the data set on PYR/PYL receptors, the “PPC2 enzyme activity of HBA1, ABI1, and ABI2 inhibited” value is listed as > 90%. For the same compound, in data set [1] (CYP707AOX vs wild-type), the “inhibition of plant growth and germination in plants that overexpress CYP707A” value is given as “reduced”. For the same compound, the “inhibition of plant growth and germination in cyp707a double mutant” value in data set [1] (cyp707a double mutant vs wild-type) is listed as “enhanced”. The “inhibition of germination in quadruple mutant” value with Arabidopsis seeds was “inhibit germination in the quadruple mutant”. Moreover, in the data set with ABA-responsive genes (Col and Ler ecotypes and pyr1, pyl1, ply2, pyl3 and pyl4 single mutants), the “induction of MAPKKK18, RD29A, and RD29B mRNAs” value was “induced”. Further, the “expression of ABF3, GBF3, NCED3, and RD29A” value with ABA-responsive genes (Col wild-type plants) is “induced expression of ABF3, GBF3, NCED3, and RD29A in a dose dependent manner”; in the data set on ABA-responsive genes (abi1-1 and PYR/PYL quadruple mutant plants), “induction levels were impaired”. Besides, the “effect on growth of Chlamydomonas” value with Chlamydomonas is listed as “no effect”.
